Test results taken from ChEMBL document CHEMBL1159008, “Isolation, NMR studies, and biological activities of onopordopicrin from Centaurea sonchifolia” (J Nat Prod, 1992).
In brackets after ≈: the same amount, converted by molar mass. Activity calls are given as the source filed them. The calls are words filed in the database; no cut-off is given here.

Legend:
Saccharomyces cerevisiae = experiment: Antifungal activity against Saccharomyces cerevisiae M25 at 250 ug/dsik; type: functional, organism-based
Candida albicans = experiment: Antifungal activity against Candida albicans A-26 at 250 ug/dsik; type: functional, organism-based
[1] = system: Trichophyton mentagrophytes; experiment: Antifungal activity against Trichophyton mentagrophytes A-23 at 250 ug/dsik; type: functional, organism-based
Staphylococcus aureus = experiment: Antibacterial activity against Staphylococcus aureus ATCC 25923 by disk diffusion assay; type: functional, organism-based
KB = experiment: Cytotoxicity against human KB cells; type: functional, cell-based

C=C(CO)C(=O)O[C@H]1C/C(C)=C\CC/C(CO)=C\[C@H]2OC(=O)C(=C)[C@H]12 [ONOPORDOPICRIN]
Activity (Saccharomyces cerevisiae): inactive | Activity (Candida albicans): inactive | Activity [1]: inactive | Activity (Staphylococcus aureus): Active | EC50 (KB): 0.85 µg/mL (≈ 2.44 µM)
